{
  "source": "patent US20050004106A1",
  "about": "“Combinations of GABA modulators and anticonvulsants, and atypical antipsychotics” (Pfizer Inc, priority 2003, published 2005)",
  "origin": "cited, not measured here",
  "key": {"[1]": {"settings": "in vivo"}},
  "data": [
    {"compound": "Cl.O.O=C1Cc2cc(CCN3CCN(c4nsc5ccccc45)CC3)c(Cl)cc2N1", "note": "[ziprasidone, 5-[2-[4-(1,2-benzisothiazol-3-yl)piperazin-1-yl]ethyl]-6-chloroindolin-2-one hydrochloride hydrate]", "values": [
      {"measurement": "protein binding", "value": "extensive"},
      {"measurement": "half-life", "setting": "[1]", "value": "6 to 7", "unit": "h"}
    ]}
  ]
}
